Assay results: patent EP0326331B1, “Substituted quinolines and cinnolines” (Dow AgroSciences LLC, priority 1988, dated 1989)

Key:
Type in all cases: in vivo
[1] = tested on: Erysiphe graminis tritici (powdery mildew); test: Test 1 greenhouse foliar spray screen, powdery mildew on wheat; conditions: disease control rating, foliar spray on wheat, 400 ppm (+++ at 100 ppm)
[2] = tested on: Pyricularia oryzae (rice blast); test: whole plant or invertebrate; conditions: disease control rating, foliar spray on rice, 400 ppm (+++ at 100 ppm)
[3] = tested on: Puccinia recondita tritici (leaf rust); test: Test 1 greenhouse foliar spray screen, leaf rust on wheat; conditions: disease control rating, foliar spray on wheat, 400 ppm (+++ at 100 ppm)
[4] = tested on: Botrytis cinerea (gray mold); test: Test 1 greenhouse foliar spray screen, gray mold on grape berries; conditions: disease control rating, spray on grape berries, 400 ppm (+++ at 100 ppm)
[5] = tested on: Pseudoperonospora cubensis (downy mildew); test: Test 1 greenhouse foliar spray screen, downy mildew on squash; conditions: disease control rating, foliar spray on squash, 400 ppm (+++ at 100 ppm)
[6] = tested on: Cercospora beticola (leaf spot); test: Test 1 greenhouse foliar spray screen, leaf spot on sugar beet; conditions: disease control rating, foliar spray on sugar beet, 400 ppm (+++ at 100 ppm)
[7] = tested on: Venturia inaequalis (apple scab); test: Test 1 greenhouse foliar spray screen, apple scab on apple seedling; conditions: disease control rating, foliar spray on apple seedling, 400 ppm (+++ at 100 ppm)
[8] = tested on: Septoria tritici (leaf blotch); test: Test 1 greenhouse foliar spray screen, leaf blotch on wheat; conditions: disease control rating, foliar spray on wheat, 400 ppm (+++ at 100 ppm)
[9] = tested on: southern armyworm (Spodopetra eridania Cramer); test: Mite/insect screen, SAW; conditions: Spodoptera eridania, percent mortality, SAW, read-out: SAW RESULTS %; for mortality at 200 ppm: SM & MA RATE 200 PPM; for mortality at 400 ppm: SM & MA RATE 400 PPM
Outline: (§1)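 Foliar spray to runoff (10 psi), 1 h drying; aqueous dilutions from acetone/alcohol emulsifier stock. Mortality (%) after standard exposure.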

[10] = tested on: Twospotted spider mites (Tetranychus urticae Koch); test: Mite/insect screen, SM; conditions: Tetranychus urticae, percent mortality, SAW, read-out: SM RESULTS %; for mortality at 200 ppm: SM & MA RATE 200 PPM; for mortality at 400 ppm: SM & MA RATE 400 PPM
Outline: as §1

[11] = tested on: melon aphids (Aphis gossypii Glover); test: Mite/insect screen, MA; conditions: Aphis gossypii, percent mortality, SAW, read-out: MA RESULTS %; for mortality at 200 ppm: SM & MA RATE 200 PPM; for mortality at 400 ppm: SM & MA RATE 400 PPM
Outline: as §1

corn rootworm = test: Mite/insect screen, CRW; conditions: percent mortality, read-out: CRW RESULTS %; for mortality at 12 ppm: CRW RATE 12.00 PPM; for mortality at 24 ppm: CRW RATE 24.00 PPM
Outline: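 Following dissolution in equal parts acetone and alcohol with 23 g/L and 13 g/L emulsifier blends and dilution with water, test solutions were scored for percent mortality at the end of standard exposures.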

Row | Compound | POWD MDEW [1] | RICE BLAST [2] | LEAF RUST [3] | GRAY MOLD [4] | DOWN MDEW [5] | LEAF SPOT [6] | APPL SCAB [7] | LEAF BLOT [8] | mortality at 200 ppm [9] [%] | mortality at 400 ppm [9] [%] | mortality at 200 ppm [10] [%] | mortality at 400 ppm [10] [%] | mortality at 200 ppm [11] [%] | mortality at 400 ppm [11] [%] | mortality at 12 ppm (corn rootworm) [%] | mortality at 24 ppm (corn rootworm) [%]
1 | Clc1ccc(CCNc2ccnc3cc(Cl)ccc23)c(Cl)c1 [Example 44, 7-chloro-N-[2-(2,4-dichlorophenyl)ethyl]-4-quinolinamine] | +++ (90-100% control at 100 ppm) | + (20-89% control at 400 ppm) | + (20-89% control at 400 ppm) | - (0-19% control at 400 ppm) | +++ (90-100% control at 100 ppm) | +++ (90-100% control at 100 ppm) | + (20-89% control at 400 ppm) | - (0-19% control at 400 ppm) | 0 | 0 | 0 | 0 | 0 | 0 | 0 | 0
2 | COc1cc(CCNc2ccnc3cc(Cl)ccc23)cc(OC)c1 [Example 45, 7-chloro-N-[2-(3,5-dimethoxyphenyl)ethyl]-4-quinolinamine] | + (20-89% control at 400 ppm) | ++ (90-100% control at 400 ppm) | + (20-89% control at 400 ppm) | - (0-19% control at 400 ppm) | ++ (90-100% control at 400 ppm) | +++ (90-100% control at 100 ppm) | - (0-19% control at 400 ppm) | - (0-19% control at 400 ppm) | 0 | 0 | 0 | 0 | 0 | 0 | 0 | 0
3 | COc1ccc(CCNc2ccnc3ccc(C)cc23)cc1 [Example 46, N-[2-(4-methoxyphenyl)ethyl]-6-methyl-4-quinolinamine] | + (20-89% control at 400 ppm) | ++ (90-100% control at 400 ppm) | + (20-89% control at 400 ppm) | - (0-19% control at 400 ppm) | ++ (90-100% control at 400 ppm) | +++ (90-100% control at 100 ppm) | + (20-89% control at 400 ppm) | + (20-89% control at 400 ppm) | 0 | 0 | 0 | 0 | 0 | 0 | 0 | 0
4 | COc1ccc(CCNc2ccnc3cc(C(F)(F)F)ccc23)cc1OC [Example 48, N-[2-(3,4-dimethoxyphenyl)ethyl]-7-(trifluoromethyl)-4-quinolinamine] | + (20-89% control at 400 ppm) | + (20-89% control at 400 ppm) | + (20-89% control at 400 ppm) | - (0-19% control at 400 ppm) | ++ (90-100% control at 400 ppm) | + (20-89% control at 400 ppm) | - (0-19% control at 400 ppm) | - (0-19% control at 400 ppm) | 0 | 0 | 0 | 0 | 0 | 0 | 0 | 0
5 | Cc1ccc(CCNc2ccnc3cc(Cl)ccc23)cc1 [Example 50, 7-chloro-N-[2-(4-methylphenyl)ethyl]-4-quinolinamine] | +++ (90-100% control at 100 ppm) | - (0-19% control at 400 ppm) | ++ (90-100% control at 400 ppm) | - (0-19% control at 400 ppm) | +++ (90-100% control at 100 ppm) | - (0-19% control at 400 ppm) | - (0-19% control at 400 ppm) | - (0-19% control at 400 ppm) | 0 | 0 | 0 | 0 | 0 | 0 | 0 | 0
6 | Fc1ccc(CCNc2ccnc3c(Cl)cccc23)cc1 [Example 51, 8-chloro-N-[2-(4-fluorophenyl)ethyl]-4-quinolinamine] | - (0-19% control at 400 ppm) | + (20-89% control at 400 ppm) | + (20-89% control at 400 ppm) | - (0-19% control at 400 ppm) | +++ (90-100% control at 100 ppm) | +++ (90-100% control at 100 ppm) | - (0-19% control at 400 ppm) | - (0-19% control at 400 ppm) | 0 | 20 | 0 | 0 | 0 | 0 | 0 | 0
7 | FC(F)(F)c1cccc2c(NCCc3ccc(Cl)cc3Cl)ccnc12 [Example 52, N-[2-(2,4-dichlorophenyl)ethyl]-8-(trifluoromethyl)-4-quinolinamine] | - (0-19% control at 400 ppm) | + (20-89% control at 400 ppm) | + (20-89% control at 400 ppm) | - (0-19% control at 400 ppm) | +++ (90-100% control at 100 ppm) | + (20-89% control at 400 ppm) | - (0-19% control at 400 ppm) | +++ (90-100% control at 100 ppm) | 0 | 0 | 0 | 0 | 0 | 0 | 0 | 0
8 | Cc1ccc2nccc(NCCc3ccc(Cl)cc3Cl)c2c1 [Example 53, .N-[2-(2,4-dichlorophenyl)ethyl]-6-methyl-4-quinolinamine] | +++ (90-100% control at 100 ppm) | + (20-89% control at 400 ppm) | + (20-89% control at 400 ppm) | - (0-19% control at 400 ppm) | +++ (90-100% control at 100 ppm) | +++ (90-100% control at 100 ppm) | - (0-19% control at 400 ppm) | + (20-89% control at 400 ppm) | 0 | 0 | 0 | 0 | 0 | 0 | 0 | 0
9 | COc1cc2c(NCCc3ccccc3)cc(C)nc2cc1Cl [Example 54, 7-chloro-6-methoxy-2-methyl-N-(2-phenylethyl)-4-quinolinamine] | - (0-19% control at 400 ppm) | ++ (90-100% control at 400 ppm) | + (20-89% control at 400 ppm) | - (0-19% control at 400 ppm) | +++ (90-100% control at 100 ppm) | +++ (90-100% control at 100 ppm) | - (0-19% control at 400 ppm) | + (20-89% control at 400 ppm) | 0 | – | 0 | – | 0 | – | 0 | –
10 | COc1ccccc1CCNc1ccnc2ccccc12 [Example 55, N-[2-(2-methoxyphenyl)ethyl]-4-quinolinamine] | + (20-89% control at 400 ppm) | ++ (90-100% control at 400 ppm) | + (20-89% control at 400 ppm) | - (0-19% control at 400 ppm) | ++ (90-100% control at 400 ppm) | +++ (90-100% control at 100 ppm) | - (0-19% control at 400 ppm) | - (0-19% control at 400 ppm) | 0 | – | 0 | – | 0 | – | 0 | –
